# Assay results as given in patent publication US4107424A, “1-N-[(S)-α-hydroxy-ω-aminoacyl] derivatives of 3',4'-dideoxykanamycin B and 3'-deoxykanamycin B antibiotics” (Zaidan Hojin Biseibutsu Kagaku Kenkyu Kai, priority 1972, dated 1978).
# Read-outs that look alike come from different tables or passages of the source.
# How the values were obtained:
# [1] = test system: kanamycin-resistant strains; settings: strains producing 3'-hydroxyl phosphorylating enzyme; cited from earlier work
# [2] = test system: Escherichia coli K-12 JR 66/W 677; assay: Minimal inhibitory concentration, agar dilution streak method; assay type: cell-based; settings: for MIC: Escherichia coli, 18 h
# Method: (§1) *Agar Agar dilution streak method (nutrient agar, 37° C, 18 hours)
# (§2) *Agar dilution streak method (nutrient agar, 37° C, 18 hours).
# [3] = test system: Escherichia coli K-12 ML 1629; assay: as above; assay type: cell-based; settings: K12ML1629, nutrient agar, 37° C, 18 hours
# Method: as §1, §2
# [4] = test system: Escherichia coli K-12 LA 290 R 55; assay: as above; assay type: cell-based; settings: 18 h
# Method: as §1, §2
# [5] = test system: Pseudomonas aeruginosa GN 315; assay: as above; assay type: cell-based; settings: GN315, nutrient agar, 37° C, 18 hours
# Method: as §1, §2
# [6] = test system: Pseudomonas aeruginosa No.12; assay: as above; assay type: cell-based; settings: nutrient agar, 37° C, 18 hours, read-out: Minimal inhibitory concentration
# Method: as §1, §2
# [7] = test system: Escherichia coli K-12 W 677; assay: as above; assay type: cell-based; settings: K12W677, nutrient agar, 37° C, 18 hours, read-out: Minimal inhibitory concentration
# Method: as §1, §2
# [8] = test system: Pseudomonas aeruginosa A 3; assay: as above; assay type: cell-based; settings: A3, nutrient agar, 37° C, 18 hours, read-out: Minimal inhibitory concentration
# Method: as §1, §2
# [9] = test system: Escherichia coli K-12 LA 290 R 64; assay: as above; assay type: cell-based; settings: nutrient agar, 37° C, 18 hours, read-out: Minimal inhibitory concentration
# Method: as §1, §2
# [10] = test system: Pseudomonas aeruginosa TI-13; assay: as above; assay type: cell-based; settings: TI13, nutrient agar, 37° C, 18 hours, read-out: Minimal inhibitory concentration
# Method: as §1, §2
# [11] = test system: Klebsiella pneumoniae type 22 #3038; assay: as above; assay type: cell-based; settings: for MIC: Klebsiella pneumoniae, nutrient agar, 37° C, 18 hours
# Method: as §1, §2
# [12] = test system: Escherichia coli K-12 LA 290 R 56; assay: as above; assay type: cell-based; settings: 18 h, read-out: Minimal inhibitory concentration
# Method: as §1, §2
# [13] = test system: Escherichia coli K-12 ML 1630; assay: as above; assay type: cell-based; settings: K12ML1630, nutrient agar, 37° C, 18 hours, read-out: Minimal inhibitory concentration
# Method: as §1, §2
# Sarcina lutea PCI 1001 = assay: as above; assay type: cell-based; settings: Micrococcus luteus, PCI1001; nutrient agar, 37° C, 18 hours; read-out: Minimal inhibitory concentration
# Method: (§3) [α]D^22 + 38°, (c 0.85, water).
# as §1, §2
# [14] = test system: Klebsiella pneumoniae PCI 602; assay: as above; assay type: cell-based; settings: PCI602, nutrient agar, 37° C, 18 hours
# Method: as §3, §1, §2
# [15] = test system: Bacillus subtilis NRRL B-558; assay: as above; assay type: cell-based; settings: NRRLB558, nutrient agar, 37° C, 18 hours
# Method: as §3, §1, §2
# Salmonella typhosa T-63 = assay: as above; assay type: cell-based; settings: Salmonella enterica, nutrient agar, 37° C, 18 hours
# Method: as §3, §1, §2
# Proteus rettgeri GN 466 = assay: as above; assay type: cell-based; settings: Providencia rettgeri, GN466; nutrient agar, 37° C, 18 hours
# Method: as §3, §1, §2
# Escherichia coli NIHJ = assay: as above; assay type: cell-based; settings: nutrient agar, 37° C, 18 hours
# Method: as §3, §1, §2
# [16] = test system: Pseudomonas aeruginosa 99; assay: as above; assay type: cell-based; settings: nutrient agar, 37° C, 18 hours, read-out: Minimal inhibitory concentration
# Method: as §3, §1, §2
# Proteus rettgeri GN 311 = assay: as above; assay type: cell-based; settings: Providencia rettgeri, GN311; nutrient agar, 37° C, 18 hours
# Method: as §3, §1, §2
# [17] = test system: Escherichia coli K-12 R-5; assay: as above; assay type: cell-based; settings: K12R5, nutrient agar, 37° C, 18 hours
# Method: as §3, §1, §2
# [18] = test system: Escherichia coli J 5 R 11-2; assay: as above; assay type: cell-based; settings: J5R112, 18 h, read-out: Minimal inhibitory concentration
# Method: as §3, §1, §2
# [19] = test system: Escherichia coli K-12 C 600 R 135; assay: as above; assay type: cell-based; settings: 18 h, read-out: Minimal inhibitory concentration
# Method: as §3, §1, §2
# mice = assay: Acute intravenous toxicity (LD50) in mice; settings: in words
# [20] = test system: Mycobacterium smegmatis ATCC 607; assay: Minimal inhibitory concentration, agar dilution streak method; assay type: cell-based; settings: Mycolicibacterium smegmatis, ATCC607; nutrient agar, 37° C, 48 hours; read-out: Minimal inhibitory concentration
# [21] = test system: gram-positive and gram-negative bacteria; assay: Antibacterial activity (in words); assay type: cell-based; settings: for antibacterial activity compared with parent or reference substance: sensitive (and resistant) bacteria
# Method: as §3
# in vivo = settings: mouse, iv
# [22] = test system: Staphylococcus aureus FDA 209P; assay: Minimal inhibitory concentration, agar dilution streak method; assay type: cell-based; settings: FDA209P, nutrient agar, 37° C, 18 hours, read-out: Minimal inhibitory concentration
# Method: as §1, §2
# [23] = test system: Escherichia coli K-12 ML 1410; assay: as above; assay type: cell-based; settings: K12ML1410, nutrient agar, 37° C, 18 hours, read-out: Minimal inhibitory concentration
# Method: as §1, §2
# Escherichia coli K-12 = assay: as above; assay type: cell-based; settings: K12, nutrient agar, 37° C, 18 hours, read-out: Minimal inhibitory concentration
# Method: as §1, §2
# [24] = test system: Escherichia coli K-12 ML 1410 R 81; assay: as above; assay type: cell-based; settings: 18 h, read-out: Minimal inhibitory concentration
# Method: as §1, §2
# [25] = read-out: minimum inhibitory concentrations
# [26] = drug-resistant strain, read-out: minimum inhibitory concentrations
# [27] = read-out: Minimal inhibitory concentration
# [28] = strain resistant to butirosin B
SMILES,"MIC [3, 27] [µg/mL]","MIC [4, 27] [µg/mL]",MIC [6] [µg/mL],MIC [7] [µg/mL],MIC [8] [µg/mL],MIC [9] [µg/mL],MIC [10] [µg/mL],MIC [11] [µg/mL],MIC [12] [µg/mL],"MIC [5, 27] [µg/mL]",MIC [13] [µg/mL],MIC (Sarcina lutea PCI 1001) [µg/mL],MIC [14] [µg/mL],MIC [15] [µg/mL],MIC (Salmonella typhosa T-63) [µg/mL],MIC (Proteus rettgeri GN 466) [µg/mL],MIC (Escherichia coli NIHJ) [µg/mL],MIC [16] [µg/mL],MIC (Proteus rettgeri GN 311) [µg/mL],MIC [17] [µg/mL],other results
NCC1OC(OC2C(N)CC(N)C(OC3OC(CO)C(O)C(N)C3O)C2O)C(O)CC1O (stereo not shown) [3'-deoxykanamycin],,,,,,,,,,,,,,,,,,,,,activity against kanamycin-resistant strains [1]: actually effective
NC[C@H]1O[C@H](O[C@H]2[C@H](O)[C@@H](O)[C@H](N)C[C@@H]2N)[C@H](N)C[C@@H]1O [3'-deoxyneamine],,,,,,,,,,,,,,,,,,,,,"MIC [2, 25]: > 100 µg/mL; MIC [3, 26]: 6.25 µg/mL; MIC [4, 25]: 100 µg/mL; MIC [5, 26]: > 100 µg/mL; activity against kanamycin-resistant strains [1]: actually effective"
"NCC[C@H](O)C(=O)N[C@@H]1C[C@H](N)[C@@H](O[C@H]2O[C@H](CN)CC[C@H]2N)[C@H](O)[C@H]1O [AHB-dideoxyneamine, 1-N-[(S)-4-amino-2-hydroxybutyryl]-3',4'-dideoxyneamine]",3.12,3.12,6.25,3.12,6.25,3.12,6.25,12.5,3.12,> 100,3.12,25,6.25,< 0.39,1.56,12.5,3.12,25,25,50,"MIC [2, 27]: 12.5 µg/mL; MIC [18]: 6.25 µg/mL; MIC [19]: 12.5 µg/mL; toxicity (mice): lower toxicity to animals and men; MIC [20]: 6.25 µg/mL; antibacterial activity compared with parent or reference substance [21]: higher antibacterial activity than that of the parent substance, 3',4'-dideoxyneamine, against both sensitive and resistant bacteria; antibacterial activity ([21]; various gram-positive and gram-negative bacteria, including resistant strains): exhibits a antibacterial activity against various gram-positive and gram-negative bacteria, including the kanamycin-resistant strains; LD50 (in vivo): > 100 mg/kg"
"NCC[C@H](O)C(=O)N[C@@H]1C[C@H](N)[C@@H](O[C@H]2O[C@H](CN)CC[C@H]2N)[C@H](O[C@@H]2O[C@H](CO)[C@@H](O)[C@H]2O)[C@H]1O [AHB-dideoxyribostamycin, 1-N-[(S)-4-amino-2-hydroxybutyryl]-3',4'-dideoxyribostamycin]",1.56,1.56,6.25,0.78,6.25,1.56,12.5,3.12,< 0.39,> 100,0.78,25,0.78,< 0.39,0.39,3.12,1.56,25,12.5,6.25,"effectiveness against Escherichia coli K-12 JR 66/W 677 [2, 28]: effective; MIC [22]: 1.56 µg/mL; MIC [23]: 0.78 µg/mL; MIC (Escherichia coli K-12): 1.56 µg/mL; MIC [24]: 1.56 µg/mL; effectiveness against Klebsiella pneumoniae type 22 #3038 [11, 28]: effective; MIC [18]: < 0.39 µg/mL; MIC [19]: 0.78 µg/mL; MIC [20]: < 0.39 µg/mL; antibacterial activity compared with parent or reference substance [21]: strongly enhanced antibacterial activity as compared with that of ribostamycin and 3',4'-dideoxyribostamycin and was comparable to that of butirosin B; LD50 (in vivo): > 100 mg/kg"
"NC[C@H]1O[C@H](O[C@H]2[C@H](O)[C@@H](O)[C@H](N)C[C@@H]2N)[C@H](N)[C@@H](O)[C@@H]1O [Neamine, neamine]",> 100,5.25,> 100,6.25,> 100,6.25,> 100,> 100,12.5,> 100,> 100,> 100,12.5,0.78,3.12,25,12.5,> 100,100,> 100,"MIC [2, 27]: > 100 µg/mL; MIC [22]: 6.25 µg/mL; MIC [23]: 12.5 µg/mL; MIC (Escherichia coli K-12): 6.25 µg/mL; MIC [24]: > 100 µg/mL; MIC [18]: > 100 µg/mL; MIC [19]: 12.5 µg/mL; MIC [20]: 12.5 µg/mL"
"NC[C@H]1O[C@H](O[C@H]2[C@H](O[C@@H]3O[C@H](CO)[C@@H](O)[C@H]3O)[C@@H](O)[C@H](N)C[C@@H]2N)[C@H](N)[C@@H](O)[C@@H]1O [Ribostamycin, 5-0-β-D-ribofuranosyl-neamine]",> 100,3.12,> 100,1.56,> 100,1.56,> 100,> 100,3.12,> 100,> 100,100,1.56,3.12,1.56,6.25,6.25,> 100,12.5,50,"MIC [2, 27]: > 100 µg/mL; MIC [22]: 3.12 µg/mL; MIC [23]: 3.12 µg/mL; MIC (Escherichia coli K-12): 3.12 µg/mL; MIC [24]: > 100 µg/mL; MIC [18]: > 100 µg/mL; MIC [19]: 1.56 µg/mL; MIC [20]: 6.25 µg/mL"
